This note sets out measurements from patent publication US5041441A, “Method of chemotherapy using 1-phenyl-2-decanoylamino-3-morpholino-1-propanol” (The Regents of the University of Michigan, priority 1988, dated 1991).

The subject of this data set is EATC. The data set is described as follows: D-threo-PDMP with detergents (Myrj 52 or Pluronic F68) in mice. Format: in vivo. The following applies: for Number of apparently cured mice at 60 days: 8 mice. The method, then: Male mice of the ICR (Swiss Hsd) strain from Harlan--Sprague Dawley (Indianapolis, Ind.) were injected intraperitoneal with saline containing 2×10^6 Ehrlich ascites tumor cells (EATC) on day 0. Each cage contained 4 or 5 mice which had been weight matched by a computer program for similar means (about 25 g) and similar standard deviations. Treatment began 24 hours later with intraperitoneal injections of saline or inhibitor, either as the acetate salt or as the hydrochloride salt. The inhibitor was dissolved in 40° C. saline and injected at 10 μl/g body weight. In the case of drugs that were difficult to dissolve, e.g. the hydrochlorides, a non-ionic, low toxicity detergent was included to emulsify the drug, making it suitable for injection. Two cages of mice were assigned to each control or experimental group and fed standard lab chow. In almost all cases, the mice were injected daily for a total of 10 doses.
Four groups of mice (8 per group) were injected once a day for 10 d with 120 mg/kg of D-threo-PDMP and 60 or 180 mg/kg of Myrj 52 or Pluronic F68. No deaths occurred in these mice by 10 days and, at 60 days, the number of apparently cured mice was 2 and 3 for the two Myrj groups and 1 and 3 for the two Pluronic groups.

SMILES strings stand for the structures.

With `CCCCCCCCCC(=O)N[C@H](CN1CCOCC1)[C@H](O)c1ccccc1` [D-threo-PDMP, 1-Phenyl-2-Decanoylamino-3-Morpholino-1-Propanol], the “Number of apparently cured mice at 60 days” value is, setting by setting: (120 mg/kg for 10 d with Myrj 52, first group (60 mg/kg)) 2; (120 mg/kg for 10 d with Myrj 52, second group (180 mg/kg)) 3; (120 mg/kg for 10 d with Pluronic F68, first group (60 mg/kg)) 1; (120 mg/kg for 10 d with Pluronic F68, second group (180 mg/kg)) 3. Also, under “120 mg/kg once a day for 10 d with 60 or 180 mg/kg of Myrj 52 or Pluronic F68, 8 per group”, the “Deaths by 10 days” value is recorded as “No deaths”.
